Assay results reported in paper PMC9948168, “Vanillin-Based Indolin-2-one Derivative Bearing a Pyridyl Moiety as a Promising Anti-Breast Cancer Agent via Anti-Estrogenic Activity” (ACS Omega, 2023).

Experiments:
Assay in all cases: NCI-60 one-dose screening
Assay type in all cases: cell-based
[1] = tested on: 786-0; conditions: Homo sapiens, 786-0, Renal Cancer, read-out: GI (%)
[2] = tested on: A498; conditions: Homo sapiens, A498, Renal Cancer, read-out: GI (%)
[3] = tested on: A549/ATCC; conditions: Homo sapiens, Non-Small Cell Lung Cancer, read-out: GI (%)
[4] = tested on: ACHN; conditions: Homo sapiens, Renal Cancer, read-out: GI (%)
[5] = tested on: BT-549; conditions: Homo sapiens, BT-549, Breast Cancer, read-out: GI (%)
[6] = tested on: COLO 205; conditions: Homo sapiens, COLO 205, Colon Cancer, read-out: GI (%)
[7] = tested on: DU-145; conditions: Homo sapiens, DU-145, Prostate Cancer, read-out: GI (%)
[8] = tested on: EKVX; conditions: Homo sapiens, Non-Small Cell Lung Cancer, read-out: GI (%)
[9] = tested on: HCT-116; conditions: Homo sapiens, HCT-116, Colon Cancer, read-out: GI (%)
[10] = tested on: HCT-15; conditions: Homo sapiens, HCT-15, Colon Cancer, read-out: GI (%)
[11] = tested on: HOP-62; conditions: Homo sapiens, HOP-62, Non-Small Cell Lung Cancer, read-out: GI (%)
[12] = tested on: HT29; conditions: Homo sapiens, HT-29, HT29, Colon Cancer, read-out: GI (%)
[13] = tested on: IGROV1; conditions: Homo sapiens, IGROV-1, IGROV1, Ovarian Cancer, read-out: GI (%)
[14] = tested on: K-562; conditions: Homo sapiens, K562, K-562, Leukemias, read-out: GI (%)
[15] = tested on: KM12; conditions: Homo sapiens, KM12, Colon Cancer, read-out: GI (%)
[16] = tested on: LOX IMVI; conditions: Homo sapiens, Melanoma, read-out: GI (%)
[17] = tested on: MALME-3M; conditions: Homo sapiens, Melanoma, read-out: GI (%)
[18] = tested on: MDA-MB-435; conditions: Homo sapiens, MDA-MB-435, Melanoma, read-out: GI (%)
[19] = tested on: MOLT-4; conditions: Homo sapiens, MOLT-4, Leukemias, read-out: GI (%)
[20] = tested on: NCI-H226; conditions: Homo sapiens, NCI-H226, Non-Small Cell Lung Cancer, read-out: GI (%)
[21] = tested on: NCI-H23; conditions: Homo sapiens, NCI-H23, Non-Small Cell Lung Cancer, read-out: GI (%)
[22] = tested on: NCI-H322M; conditions: Homo sapiens, Non-Small Cell Lung Cancer, read-out: GI (%)
[23] = tested on: NCI-H460; conditions: Homo sapiens, NCI-H460, Non-Small Cell Lung Cancer, read-out: GI (%)
[24] = tested on: NCI/ADR-RES; conditions: Homo sapiens, Ovarian Cancer, read-out: GI (%)
[25] = tested on: OVCAR-3; conditions: Homo sapiens, OVCAR-3, 10 μM; OVCAR-3, Ovarian Cancer; read-out: GI (%)
[26] = tested on: OVCAR-4; conditions: Homo sapiens, OVCAR-4, 10 μM; OVCAR-4, Ovarian Cancer; read-out: GI (%)
[27] = tested on: OVCAR-5; conditions: Homo sapiens, OVCAR-5, Ovarian Cancer, read-out: GI (%)
[28] = tested on: SF-295; conditions: Homo sapiens, SF-295, CNS Cancer, read-out: GI (%)
[29] = tested on: SF-539; conditions: Homo sapiens, SF-539, CNS Cancer, read-out: GI (%)
[30] = tested on: SK-MEL-2; conditions: Homo sapiens, SK-MEL-2, Melanoma, read-out: GI (%)
[31] = tested on: SR; conditions: Homo sapiens, Leukemias, read-out: GI (%)
[32] = tested on: SW-620; conditions: Homo sapiens, SW-620, Colon Cancer, read-out: GI (%)
[33] = tested on: TK-10; conditions: Homo sapiens, TK-10, Renal Cancer, read-out: GI (%)
[34] = tested on: U251; conditions: Homo sapiens, U-251, U251, CNS Cancer, read-out: GI (%)
[35] = tested on: UACC-257; conditions: Homo sapiens, UACC-257, Melanoma, read-out: GI (%)
[36] = tested on: UO-31; conditions: Homo sapiens, UO-31, Renal Cancer, read-out: GI (%)

Structure (SMILES) | inhibition at 10 µM [1] [%] | inhibition at 10 µM [2] [%] | inhibition at 10 µM [3] [%] | inhibition at 10 µM [4] [%] | inhibition at 10 µM [5] [%] | inhibition at 10 µM [6] [%] | inhibition at 10 µM [7] [%] | inhibition at 10 µM [8] [%] | inhibition at 10 µM [9] [%] | inhibition at 10 µM [10] [%] | inhibition at 10 µM [11] [%] | inhibition at 10 µM [12] [%] | inhibition at 10 µM [13] [%] | inhibition at 10 µM [14] [%] | inhibition at 10 µM [15] [%] | inhibition at 10 µM [16] [%] | inhibition at 10 µM [17] [%] | inhibition at 10 µM [18] [%] | inhibition at 10 µM [19] [%] | inhibition at 10 µM [20] [%] | further results
COc1cc(/C=C2/C(=O)Nc3cc(Cl)ccc32)ccc1OCc1ccc(F)cc1 [6m] | -7.88 | 5.75 | -9.5 | 6.43 | 4.26 | -10.2 | -4.25 | 23.5 | 7.12 | 10.9 | 4.08 | -5.1 | 27.3 | 2.33 | -2.27 | 6.49 | 7.28 | -3.13 | -0.43 | 8.79 | inhibition at 10 µM [21]: -0.55%; inhibition at 10 µM [22]: 1.78%; inhibition at 10 µM [23]: 1.02%; inhibition at 10 µM [24]: -0.91%; inhibition at 10 µM [25]: -1.69%; inhibition at 10 µM [26]: 16.8%; inhibition at 10 µM [27]: 1.44%; inhibition at 10 µM [28]: 2.87%; inhibition at 10 µM [29]: 4.99%; inhibition at 10 µM [30]: 0.15%; inhibition at 10 µM [31]: 2.45%; inhibition at 10 µM [32]: 1.76%; inhibition at 10 µM [33]: -85.2%; inhibition at 10 µM [34]: -10.6%; inhibition at 10 µM [35]: -9.31%; inhibition at 10 µM [36]: 20.2%
COc1ccc(COc2ccc(/C=C3/C(=O)Nc4cc(Cl)ccc43)cc2OC)cc1 [6n] | -6.9 | 6.39 | -12.9 | 5.82 | 0.06 | -11.1 | 3.17 | 13.1 | 11.1 | 0.12 | 4.49 | -0.76 | 20.1 | -2.8 | 0.42 | -2.89 | 2.77 | -5.13 | 0.87 | 6.67 | inhibition at 10 µM [21]: 2.17%; inhibition at 10 µM [22]: 3.24%; inhibition at 10 µM [23]: 20.7%; inhibition at 10 µM [24]: 0.37%; inhibition at 10 µM [25]: -5.39%; inhibition at 10 µM [26]: 17.6%; inhibition at 10 µM [27]: 2.3%; inhibition at 10 µM [28]: -2.14%; inhibition at 10 µM [29]: 9.72%; inhibition at 10 µM [30]: -0.29%; inhibition at 10 µM [31]: 0.64%; inhibition at 10 µM [32]: 3.63%; inhibition at 10 µM [33]: -64.4%; inhibition at 10 µM [34]: -6.11%; inhibition at 10 µM [35]: -21.9%; inhibition at 10 µM [36]: 18.6%
COc1cc(/C=C2/C(=O)Nc3cc(Cl)ccc32)ccc1OCc1ccccn1 [6o] | -11.2 | -7.62 | -15.6 | 5.07 | 3.31 | -18.8 | -7.21 | 25.3 | 2.05 | 7.58 | 3.58 | -15.4 | 25.2 | 8.79 | 2.85 | 2.38 | 4.92 | -6.9 | 3.45 | 5.24 | inhibition at 10 µM [21]: 4.55%; inhibition at 10 µM [22]: 0.51%; inhibition at 10 µM [23]: -3.23%; inhibition at 10 µM [24]: -7.14%; inhibition at 10 µM [25]: -15.5%; inhibition at 10 µM [26]: 3.45%; inhibition at 10 µM [27]: 2.11%; inhibition at 10 µM [28]: -1.12%; inhibition at 10 µM [29]: 4.76%; inhibition at 10 µM [30]: -8.06%; inhibition at 10 µM [31]: 6.43%; inhibition at 10 µM [32]: 0.42%; inhibition at 10 µM [33]: -69.3%; inhibition at 10 µM [34]: -7.72%; inhibition at 10 µM [35]: -22.8%; inhibition at 10 µM [36]: 16.6%
